Laboratory results: the OligoGym collection
Several values for one entry are separate records, joined by “and”; a condition that tells them apart may be missing. Identical values can stand only once. After the bases stand the sugars from the 5' end (letter, count) and the backbone: PS all phosphorothioate, else s phosphorothioate and o phosphodiester by linkage. Methylation of C is not given here. e = 2'-O-(2-methoxyethyl) (MOE); k = constrained ethyl (cEt); d = 2'-deoxy (DNA)

Target: IRF4
Settings: ASO

Sequence	target mRNA inhibition (MM.1R, 1 µM)	target mRNA inhibition (SK-MEL-28, 4 µM)	other results
ACTTTTAGAGAGGAGA (sugars kkddddddddddkeke, PS)	23%		
TCTTCCAGCAAGACCT (sugars k3 d10 k3, PS)		28%	
CCTAAGTACCTGAAAT (sugars k3 d10 k3, PS)		11%	
CTGGATATGTGGTGTT (sugars k3 d10 k3, PS)	30%		
GAAGTTTACACTGGAT (sugars k3 d10 k3, PS)		65%	
ATAACATGAGAGTGTT (sugars k3 d10 k3, PS)	-17%		
ACTTTTAGAGAGGAGA (sugars k3 d10 k3, PS)		64%	
AGTGTCTAAAGTCCCA (sugars kkdddddddddkekek, PS)	26% and 9%		
AGGTAGTAGACCACAG (sugars k3 d10 k3, PS)		59%	
GCTTACAAAAACTTGG (sugars k3 d10 k3, PS)		26%	
GAAATGTCAAACCCTA (sugars k3 d10 k3, PS)		71%	
TCTATAGTGTTCCAGG (sugars e1 k2 d9 k2 e2, PS)	58%		target mRNA inhibition (MM.1R, 0.074 µM): 22%; target mRNA inhibition (MM.1R, 0.222 µM): 33%; target mRNA inhibition (MM.1R, 0.666 µM): 52%; target mRNA inhibition (MM.1R, 2 µM): 74%
CTCTGACAAGAACTGC (sugars k3 d10 k3, PS)		30%	
GTACACTTTGTACGGG (sugars k3 d10 k3, PS)		64%	
TAGTCGCGCAAGTCTA (sugars k3 d10 k3, PS)		-8%	
CCGCACTCACTCGCAG (sugars k3 d10 k3, PS)		8%	
GAGGACTTATTTGTGG (sugars k3 d10 k3, PS)	22%		
TTGATGTGATAGCTGA (sugars kkdddddddddkekek, PS)	24%		
CTTTATAGTAGGTAAG (sugars k3 d10 k3, PS)	-1%		
GGCGCGCTCCCTTCCC (sugars k3 d10 k3, PS)		10%	

Sequence	target mRNA inhibition (MM.1R, 1 µM)	target mRNA inhibition (SK-MEL-28, 4 µM)	other results
GCCGAAGTCAACAGGA (sugars k3 d10 k3, PS)	-17%		
CTTGATAAAGGCTGAA (sugars e1 k2 d9 k2 e2, PS)	17%		
CCTCCATTCTAACAGA (sugars k3 d10 k3, PS)		-18%	
GATTATATACTGGTTG (sugars k2 d9 e3 k2, PS)	42%		
CCAAACCTTAAGCTAT (sugars k3 d10 k3, PS)	18% and 34%		
CATGTAAAGTCTGCTG (sugars k3 d10 k3, PS)		58%	
ACCTAATCTACAACAA (sugars k3 d10 k3, PS)		17%	
AGCAAGTGTCTTCCAC (sugars k3 d10 k3, PS)		75% and 72%	
AGTGCCCAAGCCTTGA (sugars k3 d10 k3, PS)		48%	
TGACAAGAACTGCTGT (sugars k3 d10 k3, PS)		18%	
GATATAAATAGCTGTT (sugars k4 d8 k4, PS)		61%	target mRNA inhibition (MM.1R, 0.074 µM): 5% and 3%; target mRNA inhibition (MM.1R, 0.222 µM): 6% and 15%; target mRNA inhibition (MM.1R, 0.666 µM): 12%; target mRNA inhibition (MM.1R, 2 µM): 24% and 19%; target mRNA inhibition (SK-MEL-28, 0.185 µM): 2% and 6% and 10%; target mRNA inhibition (SK-MEL-28, 5 µM): 57% and 76%
GATGCTCAGAATGAAG (sugars k3 d10 k3, PS)		43%	
TTTAGTATCACCTCTA (sugars k3 d10 k3, PS)	30%		
CTTGCAGCTCTGACAA (sugars k3 d10 k3, PS)		9%	
GGTTGGCTGGTCTTTG (sugars kkddddddddddkeke, PS)	76% and 60%		target mRNA inhibition (MM.1R, 0.0625 µM): 18%; target mRNA inhibition (MM.1R, 0.25 µM): 33%; target mRNA inhibition (MM.1R, 4 µM): 72%
ATCTACTCCAGACCCC (sugars k3 d10 k3, PS)		27%	
CAGAAATCACGAGGTT (sugars k3 d10 k3, PS)	25%		
CTTCACTACCTGCAGC (sugars k3 d10 k3, PS)		22%	
TTCCATAGATCAACAT (sugars k3 d10 k3, PS)		44%	
TACTGTTACCGATGCT (sugars kddddddddddkekek, PS)	10% and 2%		
